For 55 compounds, IC50 results are on record in patent publication US20250170126A1 (MITSUBISHI TANABE PHARMA CORPORATION, priority 2022, published 2025).

The structures appear in SMILES notation.

In this assay the target is Human B0AT1 (Homo sapiens (Human), UniProt Q695T7). The experiment in a line: hB0AT1 inhibitory test (phenylalanine uptake). It is filed as cell-based. The note with it: Human B0AT1 stable expression CHO cells; [3H]-L-phenylalanine uptake, phenylalanine 0.25 mM. Here is the method: A test compound dissolved in dimethyl sulfoxide (DMSO) was added to a 96 well plate for solid phase radioactivity measurement containing a scintillator at the bottom of the well (final concentration of DMSO 0.5%). DMSO alone as a control and DMSO containing N-(4-bromophenyl)-3,5-dichloro-2-hydroxybenzamide (final concentration […]) for the is measurement of B0AT1 non-specific uptake were similarly added at 0.5 μL per well. Human B0AT1 stable expression CHO cells suspended in a buffer (buffer containing 96 mM sodium chloride, 2 mM potassium chloride, 1.8 mM calcium chloride, 1 mM magnesium chloride, 0.01% bovine serum albumin, and 10 mM 2-[4-(2-hydroxyethyl)-1-piperazinyl]ethanesulfonic acid) were added by 90 μL to 75000 cells/well. After standing at ordinary temperature for 30 min or longer, the cells were subjected to a phenylalanine uptake experiment. A buffer containing L-phenylalanine and [3,4,5-3H]-L-phenylalanine was added by 10 μL per well (final concentration of phenylalanine 0.25 mM), and the radioactivity of the plate bottom surface at ordinary temperature was measured with a scintillation counter over time, and the radioactivity value after 100 to 200 min was analyzed. A value obtained by subtracting the B0AT1 non-specific uptake from the control uptake was taken as 100%, and the concentration necessary for each test compound to achieve 50% inhibition (IC50 value) was determined by nonlinear regression using a logistic model.
Sequence of Human B0AT1 (Q695T7 whole entry): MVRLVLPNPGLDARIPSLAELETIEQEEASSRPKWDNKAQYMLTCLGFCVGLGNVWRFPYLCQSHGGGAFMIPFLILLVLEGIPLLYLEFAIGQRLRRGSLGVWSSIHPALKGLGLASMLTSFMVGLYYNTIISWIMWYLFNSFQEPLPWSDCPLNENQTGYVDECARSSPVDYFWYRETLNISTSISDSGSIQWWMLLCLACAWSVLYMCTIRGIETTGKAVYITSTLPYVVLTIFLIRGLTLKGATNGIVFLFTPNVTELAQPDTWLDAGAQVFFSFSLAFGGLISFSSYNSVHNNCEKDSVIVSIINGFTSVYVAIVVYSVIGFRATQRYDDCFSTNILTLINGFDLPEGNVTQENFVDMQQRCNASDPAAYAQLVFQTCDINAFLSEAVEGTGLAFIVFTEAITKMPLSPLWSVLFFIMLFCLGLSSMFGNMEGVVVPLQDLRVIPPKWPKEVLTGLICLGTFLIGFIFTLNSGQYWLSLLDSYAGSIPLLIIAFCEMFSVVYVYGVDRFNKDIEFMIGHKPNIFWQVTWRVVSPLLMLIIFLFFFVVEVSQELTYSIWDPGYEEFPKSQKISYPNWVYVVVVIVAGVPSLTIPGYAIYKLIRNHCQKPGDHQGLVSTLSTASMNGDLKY
Turning to `O=C(/C=C/c1ccc(C(F)(F)F)cc1)NCC(=O)N1CC(=O)NC(c2ccccc2)C1` (single isomer, unassigned) [I-136, (E)-N-[2-oxo-2-[3-oxo-5-phenylpiperazin-1-yl]ethyl]-3-[4-(trifluoromethyl)phenyl]prop-2-enamide], half-maximal inhibition (IC50) required 87 nM. In other words, the double-digit nanomolar range.

`O=C(/C=C/c1ccc(C(F)(F)F)cc1)NCC(=O)N1CCNC(=O)C1` [I-1, (E)-N-[2-oxo-2-(3-oxopiperazin-1-yl)ethyl]-3-[4-(trifluoromethyl)phenyl]prop-2-enamide] gave an IC50 of 107 nM. This IC50 and that of the compound before are within 1.5-fold of each other.

`CN1CCN(C(=O)CNC(=O)/C=C/c2ccc(C(F)(F)F)cc2)CC1` [I-2] registered an IC50 of 53 nM. Against the preceding compound, the IC50 is about 2-fold lower.

In the case of `CN1CCCN(C(=O)CNC(=O)/C=C/c2ccc(C(F)(F)F)cc2)CC1` [I-3], the half-inhibitory concentration (IC50) was 40 nM. This IC50 and that of the compound before are within 1.5-fold of each other.

`COCCN(CCOC)C(=O)CNC(=O)/C=C/c1ccc(C(F)(F)F)cc1` [I-4] gave an IC50 of 285 nM. Compared with the last compound, the IC50 is about 7.1-fold higher.

Regarding `CCN(CCOC)C(=O)CNC(=O)/C=C/c1ccc(C(F)(F)F)cc1` [I-5], it took 262 nM to reach half-maximal inhibition (IC50).

`CC1CN(C(=O)CNC(=O)/C=C/c2ccc(C(F)(F)F)cc2)CCN1C` (stereo not shown) [I-6]: the IC50 is 24 nM.

`O=C(/C=C/c1ccc(C(F)(F)F)cc1)NCC(=O)N1CCS(=O)(=O)CC1` [I-9] came in with an IC50 of 1590 nM.

Take `CCOCCN(CCOCC)C(=O)CNC(=O)/C=C/c1ccc(C(F)(F)F)cc1` [I-10]: half-maximal inhibition (IC50) required 803 nM.

Regarding `COCCN(C(=O)CNC(=O)/C=C/c1ccc(C(F)(F)F)cc1)C(C)COC` (stereo not shown) [I-11], the IC50 worked out at 282 nM.

On to `O=C(/C=C/c1ccc(C(F)(F)F)cc1)NCC(=O)N1CC(=O)NC(c2ccccc2)C1` (stereo not shown) [I-12, (E)-N-[2-oxo-2-(3-oxo-5-phenylpiperazin-1-yl)ethyl]-3-[4-(trifluoromethyl)phenyl]prop-2-enamide], for which the IC50 amounted to 163 nM.

As to `CN1CCN(C(=O)CNC(=O)/C=C/c2ccc(C(F)(F)F)cc2)CC1c1ccccc1` (stereo not shown) [I-13], the IC50 is 111 nM.

Compound `O=C(/C=C/c1ccc(C(F)(F)F)cc1)NCC(=O)N1CCOC(c2ccccc2)C1` (stereo not shown) [I-14] registered an IC50 of 815 nM.

With `O=C(/C=C/c1ccc(C(F)(F)F)cc1)NCC(=O)N1CCNC(=O)CC1` [I-15], the IC50 was determined as 228 nM.

On to `O=C(/C=C/c1ccc(C(F)(F)F)cc1)NCC(=O)N1CCCNC(=O)C1` [I-16], for which 1750 nM corresponded to half-maximal inhibition (IC50).

With `CN1CCN(C(=O)CNC(=O)/C=C/c2ccc(C(F)(F)F)cc2)CC1=O` [I-17], half-maximal inhibition (IC50) was put at 195 nM. This IC50 lies about 9-fold lower than the previous one.

Compound `O=C(/C=C/c1ccc(C(F)(F)F)cc1)NCC(=O)N1CC[C@H](O)C1` [I-18] returned an IC50 of 1660 nM.

With `O=C(/C=C/c1ccc(C(F)(F)F)cc1)NCC(=O)N1CCc2nncn2CC1` [I-20], the IC50 was 270 nM.

Consider `O=C(/C=C/c1ccc(C(F)(F)F)cc1)NCC(=O)N1CCn2ccnc2C1` [I-21], for which the IC50 stood at 65 nM.

Consider `O=C(/C=C/c1ccc(C(F)(F)F)cc1)NCC(=O)N1CCn2c(nnc2C(F)(F)F)C1` [I-22], for which the IC50 was 214 nM.

`O=C(/C=C/c1ccc(C(F)(F)F)cc1)NCC(=O)N1CCn2cncc2C1` [I-23] had an IC50 of 112 nM.

Take `CC(C)N1CCN(C(=O)CNC(=O)/C=C/c2ccc(C(F)(F)F)cc2)CC1` [I-24]: the IC50 was found to be 58 nM. Compared with the last compound, the IC50 is about 1.9-fold lower.

The compound `O=C(/C=C/c1ccc(C(F)(F)F)cc1)NCC(=O)N1CCN(CCO)CC1` [I-25] had an IC50 of 81 nM.

In turn, `CC1CCN(C(=O)CNC(=O)/C=C/c2ccc(C(F)(F)F)cc2)CC1` [I-26] gave a 50% inhibitory concentration (IC50) of 1440 nM.

Take `CCOC(=O)N1CCN(C(=O)CNC(=O)/C=C/c2ccc(C(F)(F)F)cc2)CC1` [I-27]: the IC50 was 720 nM.

In the case of `CC(=O)N1CCN(C(=O)CNC(=O)/C=C/c2ccc(C(F)(F)F)cc2)CC1` [I-28], half-maximal inhibition (IC50) required 978 nM. This IC50 and that of the compound before are within 1.5-fold of each other.

Compound `O=C(/C=C/c1ccc(C(F)(F)F)cc1)NCC(=O)N1CNC(=O)C1` [I-31] came in with an IC50 of 106 nM. This IC50 is about 9.2-fold lower than that of the compound before.

`O=C(/C=C/c1ccc(C(F)(F)F)cc1)NCC(=O)N1CCN2C(=O)OC[C@H]2C1` [I-32] displayed a 50% inhibitory concentration (IC50) of 212 nM. This IC50 is about 2-fold higher than that of the compound before.

In turn, `O=C(/C=C/c1ccc(C(F)(F)F)cc1)NCC(=O)N1CCN2C(=O)OC[C@@H]2C1` [I-33] showed an IC50 of 319 nM.

Consider `O=C(/C=C/c1ccc(C(F)(F)F)cc1)NCC(=O)N1CCc2ncsc2C1` [I-34], for which the midpoint of inhibition, the IC50, lay at 21 nM.

Compound `O=C(/C=C/c1ccc(C(F)(F)F)cc1)NCC(=O)N1CCn2ncnc2C1` [I-35] gave an IC50 of 51 nM.

As for `O=C(/C=C/c1ccc(C(F)(F)F)cc1)NCC(=O)N1CCc2ccncc2C1` [I-36], the IC50 was determined as 15 nM.

The compound `O=C(/C=C/c1ccc(C(F)(F)F)cc1)NCC(=O)N1CCn2cc(C(F)(F)F)nc2C1` [I-37] gave an IC50 of 91 nM.

Turning to `O=C(/C=C/c1ccc(C(F)(F)F)cc1)NCC(=O)N1CCn2c(n[nH]c2=O)C1` [I-38], the IC50 came to 46 nM.

On to `O=C(/C=C/c1ccc(C(F)(F)F)cc1)NCC(=O)N1CCc2oncc2C1` [I-39], for which the midpoint of inhibition, the IC50, lay at 29 nM.

In turn, `Cn1cnc2c1CN(C(=O)CNC(=O)/C=C/c1ccc(C(F)(F)F)cc1)CC2` [I-40] had an IC50 of 29 nM.

For `O=C(/C=C/c1ccc(C(F)(F)F)cc1)NCC(=O)N1CCN2CCOCC2C1` (stereo not shown) [I-41], half-maximal inhibition (IC50) was put at 833 nM.

Compound `O=C(/C=C/c1ccc(C(F)(F)F)cc1)NCC(=O)N1CCc2cn[nH]c2C1` [I-42] had an IC50 of 73 nM. Compared with the last compound, the IC50 is about 11-fold lower.

For `O=C(/C=C/c1ccc(C(F)(F)F)cc1)NCC(=O)N1CCN2C(=O)CCC2C1` (stereo not shown) [I-43], the midpoint of inhibition, the IC50, lay at 80 nM.

The compound `O=C(/C=C/c1ccc(C(F)(F)F)cc1)NCC(=O)N1CCN2C(=O)NCC2C1` (stereo not shown) [I-44] showed an IC50 of 261 nM.

Compound `CN1CCN(C(=O)CNC(=O)/C=C/c2ccc(C(F)(F)F)cc2)C(c2ccccc2)C1` (stereo not shown) [I-45] showed an IC50 of 24 nM. Against the preceding compound, the IC50 is about 11-fold lower.

Regarding `CN(CCS(C)(=O)=O)C(=O)CNC(=O)/C=C/c1ccc(C(F)(F)F)cc1` [I-46], it took 181 nM to reach half-maximal inhibition (IC50).

Take `CS(=O)(=O)[C@@H]1CCN(C(=O)CNC(=O)/C=C/c2ccc(C(F)(F)F)cc2)C1` [I-47]: the IC50 turned out to be 550 nM.

In the case of `COCCN(CC1CCCO1)C(=O)CNC(=O)/C=C/c1ccc(C(F)(F)F)cc1` (stereo not shown) [I-48], the IC50 came out at 536 nM.

Compound `COCCN(CC1CCOCC1)C(=O)CNC(=O)/C=C/c1ccc(C(F)(F)F)cc1` [I-49] displayed an IC50 of 775 nM.

As to `COCCN(Cc1ccccn1)C(=O)CNC(=O)/C=C/c1ccc(C(F)(F)F)cc1` [I-50], the IC50 is 81 nM.

The compound `COCCN(CCS(C)(=O)=O)C(=O)CNC(=O)/C=C/c1ccc(C(F)(F)F)cc1` [I-51] yielded an IC50 of 386 nM.

Take `COCCN(Cc1noc(C)n1)C(=O)CNC(=O)/C=C/c1ccc(C(F)(F)F)cc1` [I-52]: the IC50 came out at 56 nM.

As for `COCCN(Cc1cc(OC)ccn1)C(=O)CNC(=O)/C=C/c1ccc(C(F)(F)F)cc1` [I-53], the midpoint of inhibition, the IC50, lay at 54 nM. This IC50 and that of the compound before are within 1.5-fold of each other.

With `COCCN(Cc1ccncn1)C(=O)CNC(=O)/C=C/c1ccc(C(F)(F)F)cc1` [I-54], the IC50 is 438 nM.

In turn, `COCCN(Cc1ncccc1Cl)C(=O)CNC(=O)/C=C/c1ccc(C(F)(F)F)cc1` [I-55] had a half-maximal inhibitory concentration (IC50) of 122 nM.

The compound `COCCN(Cc1ncc(C)s1)C(=O)CNC(=O)/C=C/c1ccc(C(F)(F)F)cc1` [I-56] showed an IC50 of 67 nM. Against the preceding compound, the IC50 is about 1.8-fold lower.

In the case of `COCCN(Cc1nc(C)c(C)s1)C(=O)CNC(=O)/C=C/c1ccc(C(F)(F)F)cc1` [I-57], the IC50 was 96 nM.

With `COCCN(Cc1cc(C)n(C)n1)C(=O)CNC(=O)/C=C/c1ccc(C(F)(F)F)cc1` [I-58], the IC50 is 353 nM.

As for `COCCN(Cc1cccnn1)C(=O)CNC(=O)/C=C/c1ccc(C(F)(F)F)cc1` [I-59], the IC50 turned out to be 503 nM.

As usually defined, the IC50 is the point on the concentration scale where inhibition reaches its midpoint. The low end stands for greater potency, the high end for weaker potency.
